In patent US20190224279A1, “PHARMACEUTICAL ASSOCIATION COMPRISING A GROWTH FACTOR RECEPTOR AGONIST CONJUGATED TO A BIOACTIVE CARRIER FOR CONVERTING A NEOPLASTIC CELL INTO A NON-NEOPLASTIC CELL AND USES THEREOF” (HISTIDE AG, priority 2015, published 2019):
No end group written: not given here.

Assays:
[1] = test system: neoplastic cells (osteosarcoma cells); experiment: Immunofluorescence visualization (actin, vinculin, DAPI) of neoplastic cells on grafted polymer scaffold, 24 hours; type: cell-based; details: polymer scaffold covalently modified with mixture of GFR-binding compound and RGD peptide; 24 hours of culture
Method: FIG. 12 is (a) a representation of a Quantitative Real Time PCR analysis of the expression of DMP-1, SCT and RANK-L in neoplastic cells (osteosarcoma cells) cultured on a native polymer scaffold (control) and on a polymer scaffold grafted with a mixture comprising a GFR-binding compound as defined in the present disclosure and a RGD peptide, after 24 hours of culture, (b) immunofluorescence staining of a representative neoplastic cell (osteosarcoma cells) cultured on a polymer scaffold grafted with a mixture comprising a GFR-binding compound as defined in the present disclosure (ID SEQ NO: 2) and a RGD peptide, after 24 hours of culture. The actin filaments were immunostained by using Alexa 488-phalloidin. The focal adhesions were represented by immunostaining with anti-vinculin. The nucleus was stained with DAPI and is represented by a circle in the center of the cell. Scale bar: 5 μm. (c) is a diagram representing the grafting density of a radiolabeled GFR-binding compound as defined in the present disclosure covalently grafted on a polymer scaffold and of a radiolabeled GFR-binding compound and a non-labeled RGD peptide both grafted on a polymer scaffold. The measurements were performed by using radioactivity quantification (no significant difference was observed). […]

[2] = Stability of non-covalent association, release of FITC-labelled GFR-binding compound from carrier; type: physicochemical; details: SEQ ID NO: 9 with apatite ceramics, SEQ ID NO: 10 with type-I collagen sponge; after 3, 7 or 10 days
Method: Non-covalent associations of the bioactive carriers were performed under atmospheric conditions (air) at room temperature (about 22° C.). The non-covalent association was carried out using a mixture of GFR-binding compound of SEQ ID NO: 9 (concentration of 1×10^−3 M) with the apatite ceramics or a mixture of GFR-binding compound of SEQ ID NO: 10 (concentration of 1×10^−3M) with the type-I collagen sponge. The non-covalent pharmaceutical associations were characterized by covalently associating fluorescent GFR-binding compounds of SEQ ID NO: 9 and 10 (covalently bound to fluorescein isothiocyanate (FITC), FIG. 1).

ERK = experiment: Adhesion checkpoint activation, western blot of ERK phosphorylation (Ras/MAP kinase); type: cell-based, human; details: osteosarcoma cells on PET associations; 24 hours
Method: (§1) After 24 hours of culture, cells were permeabilized (10% SDS, 25 mM NaCl, 10 nM pepstatin and 10 nM leupeptin in distilled water and loading buffer), boiled for 10 minutes and resolved by reducing PAGE (Invitrogen). Proteins were transferred onto nitrocellulose, blocked, and labeled with HRP-conjugated antibodies (Invitrogen). Integrin αv, α5, α3, α4, β1, β, β5 and […] were blotted by treating the nitrocellulose with monoclonal anti-integrin (extracellular domain) αv, α5, α3, α4, β1, β3, β5 and β6 antibodies (Santa Cruz Biotechnology). Phosphor-Smad1/5/8 was blotted by treating the nitrocellulose with monoclonal anti-p-Smad1/5/8 (Santa Cruz Biotechnology). For all of the experiments the western blot was performed in triplicate, along with an additional blot for actin and coomassie blue staining to ensure constant protein load among samples.
(§2) Neoplastic cells (in this example osteosarcoma cells) were cultured on pharmaceutical associations comprising PET as a bioactive carrier and one of GFR-binding compounds of SEQ ID NO: 12, 19, 30 or 39. The main signaling pathways include: Ras/MAP kinase, FAK/Src kinase and PIP2 which are decreased after 24 hours as shown by western blot quantifications (FIG. 8). […] Finally, a decrease of 3-phosphoinositide-dependent protein kinase 1 (PDK1) protein expression was also was observed (FIG. 8C).

Paxillin = Paxillin gene expression by RT-PCR; type: cell-based, human; details: osteosarcoma cells on PET associations; 24 hours
Method: (§3) After 24 hours of culture, total RNA was extracted by using the RNeasy total RNA kit (Qiagen®) according to the manufacturer's instructions. Purified total RNA was used as a template in order to make cDNA by a reverse transcription reaction (Gibco BrI®) with random primers (Invitrogen®). The cDNA was then used as a template for a real-time PCR amplification in the presence of SYBR green reagents (Bio-Rad®) by using a thermocycler (iCycler, Biorad®). Data were analyzed with the iCycler IQ™® software and compared by the ΔΔCt method. Briefly, the mean Ct value of the target gene was normalized to its averaged Ct values of the housekeeping gene (GAPDH) to give a ΔCt value, which was then normalized to a control sample to obtain a ΔΔCt value. The results were obtained from two series of experiments performed in triplicate.
(§4) Neoplastic cells (in this example osteosarcoma cells) were cultured on pharmaceutical associations comprising PET as a bioactive carrier and one of GFR-binding compounds of SEQ ID NO: 12, 19, 30 or 39. After 24 hours, the Paxillin and Vinculin gene expression decreased as shown by RT-PCR (FIG. 9).

[3] = test system: 3-phosphoinositide-dependent protein kinase 1 (PDK1); experiment: Adhesion checkpoint activation, western blot of PDK1 protein expression (PIP2); type: cell-based, human; details: osteosarcoma cells on PET associations; 24 hours
Method: as §1, §2

Vinculin = Vinculin gene expression by RT-PCR; type: cell-based, human; details: osteosarcoma cells on PET associations; 24 hours
Method: as §3, §4

[4] = test system: Cyclin D (arithmetic mean of Cyclin D1, Cyclin D2 and Cyclin D3); experiment: Cyclin D profile by RT-PCR; type: cell-based, human; details: osteosarcoma cells on PET associations; after the first 30 min of cell culture
Method: as §3
Neoplastic cells (in this example osteosarcoma cells) were cultured on pharmaceutical associations comprising PET as a bioactive carrier and one of GFR-binding compounds of SEQ ID NO: 12, 19, 30 or 39. The Cyclin D (the arithmetic mean of Cyclin D1, Cyclin D2 and Cyclin D3) gene expression decreased after the first 30 min of cell culture as shown by RT-PCR (FIG. 10).

Src kinase = experiment: Adhesion checkpoint activation, western blot of Src kinase phosphorylation (FAK/Src kinase); type: cell-based, human; details: osteosarcoma cells on PET associations; 24 hours
Method: as §1, §2

[5] = test system: Smad1/5/8 signaling pathway; experiment: Growth factor receptor activation: quantification of western blots of phospho-Smad1/5/8; type: cell-based; details: human osteosarcoma cells MG63; 400 ng/mL GFR-binding compound; Table 4
Method: as §1

[6] = test system: human osteosarcoma cells, MG63; experiment: Tumor cell recoding via quantification of pRB (immunofluorescence, ImageJ); type: cell-based
Method: The cells were first fixed for 20 min with 4% paraformaldehyde/PBS at 4° C. After fixation, the cells were permeabilized in PBS containing 1% Triton X-100 for 15 min. Protein immunofluorescent visualization was performed by first treating the cells with 1% (v/v) specific monoclonal antibodies for 1 hour at 37° C. Then the samples were incubated with Alexa Fluor® 568 or 647 (F(ab′)2 fragment of IgG(H+L)) during 30 min at room temperature. The cell nuclei were counterstained in 20 ng/mL DAPI for 10 min at room temperature.
For this type of quantification the freeware image analysis ImageJ® software was used. The raw image was first converted to an 8-bit file, and then the unsharp mask feature was used (settings 1:0.2) to remove the image background (rolling ball radius 10). After smoothing, the resulting image, which appears similar to the original photomicrograph but with minimal background, was then converted to a binary image by setting a threshold. Threshold values were determined empirically by selecting a setting, which gave the most accurate binary image for a subset of randomly selected photomicrographs. The cell area was determined by manual delineation on raw fluorescent images. Total contact area and mean contact area per cell were calculated by “analyse particules” in ImageJ®. A minimum of 50 cells per condition were analyzed.
Neoplastic cells (in this example osteosarcoma cells) were cultured on pharmaceutical associations comprising PET as a bioactive carrier and one of GFR-binding compounds of SEQ ID NO: 11 to 14, 24 to 26 and 51 to 63. A rapid (24 hours) decrease of the tumor markers was observed (FIG. 7). The adhesion checkpoint then activates the tumor suppressor proteins p53 and pRB. […]

Substance | phosphorylation at Thr202 and Tyr204 on ERK (ERK) | Paxillin gene expression (Paxillin) | PDK1 protein expression [3] | Vinculin gene expression (Vinculin) | Cyclin D gene expression [4] | phosphorylation of Src kinase (Src kinase) | other results
SEQ ID NO: 2: a GFR-binding compound as defined in the present disclosure, grafted on a polymer scaffold in a mixture with a RGD peptide (KVGKASSVPTKLSAISTLYLDDMGVPTLKNYQNMVVRASGSH; also: grafted on polymer scaffold in mixture with RGD peptide) | – | – | – | – | – | – | Morphology of neoplastic cells by immunofluorescence visualization [1]: Spheroid-like structures of neoplastic cells become predominant
SEQ ID NO: 9: GFR-binding compound non-covalently associated with apatite ceramics; sequence only in the sequence listing (RNVQCRPTQVQLSAISTLYLEIVRKKPLKNYQTLEDH; non-covalently associated with apatite ceramics; Non-cyclic GFR-binding peptide) | – | – | – | – | – | – | release of GFR-binding compound from non-covalent association [2]: no significant release
SEQ ID NO: 10: GFR-binding compound non-covalently associated with type-I collagen sponge; sequence only in the sequence listing (PSSAPTQLSATSVLYYDDSSNVILRKHR; not fully specified) | – | – | – | – | – | – | release of GFR-binding compound from non-covalent association [2]: no significant release
SEQ ID NO: 12: GFR-binding compound covalently associated with PET as bioactive carrier; sequence only in the sequence listing (KVGKASSVPTKLSAISMLYLDDMGVPTLKNYQNMVVRAS; also: covalently attached to PET (bioactive carrier), site not given here) | absence of phosphorylation | decreased | decrease | decreased | decreased | no phosphorylation at Thr416 but phosphorylation of Tyr527 | –
SEQ ID NO: 19: GFR-binding compound covalently associated with PET as bioactive carrier; sequence only in the sequence listing (PSSAPTQLSATSMLYYDDSSNVILRKHRQHNK; also: covalently attached to PET) | absence of phosphorylation | decreased | decrease | decreased | decreased | no phosphorylation at Thr416 but phosphorylation of Tyr527 | –
SEQ ID NO: 30: GFR-binding compound covalently associated with PET as bioactive carrier; sequence only in the sequence listing (APTKLSAISMLYYDSSNNVIEQLSN; also: covalently attached to PET) | absence of phosphorylation | decreased | decrease | decreased | decreased | no phosphorylation at Thr416 but phosphorylation of Tyr527 | –
SEQ ID NO: 39: GFR-binding compound covalently associated with PET as bioactive carrier; sequence only in the sequence listing (KASSVPTELSPISTLYKDENEKVVLKYHYDMVV; also: covalently attached to PET) | absence of phosphorylation | decreased | decrease | decreased | decreased | no phosphorylation at Thr416 but phosphorylation of Tyr527 | –
VSQDLSAISTLYLKIVRKEPLKNYQEMVEE (Non-cyclic GFR-binding peptide) [SEQ ID NO: 98] | – | – | – | – | – | – | p-Smad1/5/8 (%) [5]: 39%; pRB (%) ([6]; Table 4): 9%; pRB (%) ([6]; Table 5): 9%
